Article PMC9317966, “Structure-function analysis of the AMPK activator SC4 and identification of a potent pan AMPK activator” (Biochemical Journal, 2022)

Assays:
[1] = tested on: rodent and non-human primate models of T2DM; design: method as in PMID 28705990; settings: cited from earlier work
[2] = tested on: HEK293T/17 cells expressing γ1-R299G AMPK; experiment: α-Thr172 phosphorylation immunoblot, HEK293T/17 cells expressing AMP-insensitive γ1 mutant R299G; type: cell-based; settings: 2.5 µM
Experimental: (§1) To explore this dose-dependent response, we used HEK293T/17 cells transiently expressing WT γ1AMPK or the AMP-insensitive γ1 mutant R299G (Supplementary Figure S4A). […] One explanation is that 2.5 µM MK-8722 caused indirect activation of AMPK (α-Thr172 phosphorylation) by inducing a metabolic stress leading to rises in AMP/ATP and ADP/ATP ratios. We examined the effect of MK-8722 incubation on C2C12 mitochondrial function (Supplementary Figure S4B–I).
(§2) HEK293T/17, HEK293T, COS7, HeLa and PC3 cells (ATCC) were maintained in Dulbecco's Modified Eagle's medium (DMEM; Sigma–Aldrich) supplemented with 10% fetal bovine serum (FBS; Assay Matrix) at 37°C and 5% CO2. Primary hepatocytes from wild type mice were prepared using the collagenase perfusion method and cultured as described previously. […]
(§3) All samples were separated on 12% SDS–PAGE gels and transferred to an Immobilon-FL PVDF membrane (Merck Millipore). […] Immunoblots were visualised on the Odyssey Infrared Imaging System (LI-COR Biosciences) and immunoreactive bands analysed and quantified using Image Studio Software (LI-COR Biosciences).
(§4) Lysates were assessed for phosphorylation of AMPKα-Thr172 by immunoblot. n = 3, data presented as mean T172 phosphorylation (arbitrary units) ± SEM. […] (J) Lysates were assessed for total protein content following the respiration assay.

[3] = tested on: HEK293T/17 cells expressing WT γ1AMPK; experiment: α-Thr172 phosphorylation immunoblot, HEK293T/17 cells transiently expressing WT γ1AMPK; type: cell-based; settings: WT γ1-expressing cells, 2.5 µM, 60 min
Experimental: as §1, §2, §3, §4

HEK293T cells = experiment: Adenylate energy charge by LC-MS in HEK293T cells; type: cell-based; settings: MSG011 up to 40 µM, 1 h
Experimental: HEK293T cell cultures grown in six-well plates were gently washed in ice cold PBS, lysed with 150 µl of ice cold 0.5 M perchloric acid (Univar) and clarified by centrifugation (16 000g, 3 min, 4°C). An amount of 75 µl of clarified lysate was neutralised with 25 µl of ice cold 2.3 M KHCO3 (Sigma–Aldrich), incubated on ice for 5 min and then centrifuged (16 000g, 3 min, 4°C). Supernatants were collected for analysis by liquid chromatography mass spectrometry–mass spectrometry (LC–MS/MS).
Adenine nucleotide metabolites were measured by LC–MS/MS with modifications to our previously described method. A QTRAP 5500 mass spectrometer (AB Sciex) was operated with the turbo V ion source linked to Prominence UFLCXR LC-20ADXR pumps (Shimadzu), SIL-20AC HT autosampler (Shimadzu) and CTO-20A HPLC column oven (Shimadzu). Both LC and MS instruments were controlled and managed with the Analyst 1.7.1 software (AB Sciex). Nitrogen was provided by a Genius NM3G nitrogen gas generator (PEAK Scientific). […] Data was analysed with MultiQuant 3.0.2 software (AB Sciex) using area under the LC curve. Calibration curves were determined by linear regression of the peak area ratio of each nucleotide and were required to have a correlation coefficient (R^2) of >0.98. […] AEC was calculated from the ratios of [AMP], [ADP] and [ATP] […]

Row | SMILES | cardiac hypertrophy ([1]; lean and diabetic animal models) | key disease hallmarks (systemic glucose clearance, glycaemic control) ([1]; rodent and non-human primate models of T2DM) | decrease of induced α-Thr172 phosphorylation relative to WT γ1 cells [2] | effect on phosphorylation of α-Thr172 ([2]; 60 min) | phosphorylation of α-Thr172 [3] | adenylate energy charge (AEC) (HEK293T cells)
1 | O[C@@H]1CO[C@H]2[C@@H]1OC[C@H]2Oc1nc2nc(-c3ccc(-c4ccccc4)cc3)c(Cl)cc2[nH]1 [MK-8722, reference compound] | reversible cardiac hypertrophy | robust improvements in key disease hallmarks | ~55% | largely abrogated | significantly increased | –
2 | CC(=O)NC1CC=C(c2ccc(-c3nc4nc(Oc5ccc(C)c(C(=O)O)c5)[nH]c4cc3Cl)cc2)CC1 (stereo not drawn) [MSG011, 5-((5-(4′-Acetamido-2′,3′,4′,5′-tetrahydro-[1,1′-biphenyl]-4-yl)-6-chloro-1H-imidazo[4,5-b]pyridin-2-yl)oxy)-2-methylbenzoic acid] | – | – | – | – | – | unaffected
